Test [1] deals with Ribosomal protein S6 kinase alpha-1 (Homo sapiens) (UniProt Q15418). The test is described as follows: Inhibition of RSK1 conserved Lys2 (DLKPENILLDEEGHIK) in human PBMC at 1 uM. As to conditions: pooled result: one value given for 4 cell lines, strains, targets or settings.
Test [2] deals with Mitogen-activated protein kinase kinase kinase 11 (Homo sapiens) (UniProt Q16584). The test is described as follows: Inhibition of MLK3 conserved Lys2 (DLKSNNILLLQPIESDDMEHK) in human PBMC at 0.1 uM.
Mitogen-activated protein kinase kinase kinase 11 (Homo sapiens), sequence (Q16584 whole entry, looked up): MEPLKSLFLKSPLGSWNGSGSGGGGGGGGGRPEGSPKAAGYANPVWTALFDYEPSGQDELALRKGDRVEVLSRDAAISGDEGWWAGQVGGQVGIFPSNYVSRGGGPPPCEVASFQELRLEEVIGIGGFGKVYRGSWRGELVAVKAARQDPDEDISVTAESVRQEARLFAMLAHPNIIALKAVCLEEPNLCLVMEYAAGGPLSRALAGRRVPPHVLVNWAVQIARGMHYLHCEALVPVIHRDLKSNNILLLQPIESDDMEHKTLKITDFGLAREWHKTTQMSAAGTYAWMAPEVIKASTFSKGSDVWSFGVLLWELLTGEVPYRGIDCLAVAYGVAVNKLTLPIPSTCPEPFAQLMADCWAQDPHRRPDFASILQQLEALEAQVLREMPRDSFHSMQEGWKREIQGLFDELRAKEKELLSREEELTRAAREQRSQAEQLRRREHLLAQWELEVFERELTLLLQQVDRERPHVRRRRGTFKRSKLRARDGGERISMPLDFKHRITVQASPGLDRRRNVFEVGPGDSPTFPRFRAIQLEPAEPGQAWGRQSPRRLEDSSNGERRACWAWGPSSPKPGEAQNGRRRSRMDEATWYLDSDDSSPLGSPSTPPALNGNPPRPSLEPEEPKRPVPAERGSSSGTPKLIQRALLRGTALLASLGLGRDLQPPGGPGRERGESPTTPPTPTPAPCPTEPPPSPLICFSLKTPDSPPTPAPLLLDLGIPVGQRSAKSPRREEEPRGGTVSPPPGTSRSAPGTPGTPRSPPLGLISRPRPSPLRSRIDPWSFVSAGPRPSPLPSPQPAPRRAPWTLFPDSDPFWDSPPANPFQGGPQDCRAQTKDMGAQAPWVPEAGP
Test [3] concerns the target Serine/threonine-protein kinase Nek7 (Homo sapiens) (UniProt Q8TDX7). Nature of the test: Inhibition of NEK7 conserved Lys2 (DIKPANVFITATGVVK) in human PBMC at 0.1 uM.
The target in test [4] is Serine/threonine-protein kinase Chk2 (Homo sapiens) (UniProt O96017). The test is described as follows: Inhibition of CHK2 labeling at conserved Lys2 (DLKPENVLLSSQEEDCLIK) in human PBMC at 1 uM.
Serine/threonine-protein kinase Chk2 (Homo sapiens), sequence (O96017 whole entry): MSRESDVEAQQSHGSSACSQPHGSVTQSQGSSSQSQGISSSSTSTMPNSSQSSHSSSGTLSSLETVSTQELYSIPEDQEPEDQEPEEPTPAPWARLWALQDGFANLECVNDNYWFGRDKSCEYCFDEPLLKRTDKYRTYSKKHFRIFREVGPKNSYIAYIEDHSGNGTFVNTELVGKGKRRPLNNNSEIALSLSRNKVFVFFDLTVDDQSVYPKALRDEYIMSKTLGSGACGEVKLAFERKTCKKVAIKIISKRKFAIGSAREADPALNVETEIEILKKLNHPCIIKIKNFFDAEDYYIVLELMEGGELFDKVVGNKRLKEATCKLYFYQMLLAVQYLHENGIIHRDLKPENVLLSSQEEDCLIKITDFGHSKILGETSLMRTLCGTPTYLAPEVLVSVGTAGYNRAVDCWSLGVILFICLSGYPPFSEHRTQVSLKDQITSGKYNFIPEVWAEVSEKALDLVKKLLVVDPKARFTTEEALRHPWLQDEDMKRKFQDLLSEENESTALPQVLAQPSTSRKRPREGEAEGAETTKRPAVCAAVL
Test [5] concerns the target T1, Mitogen-activated protein kinase kinase kinase 5 (Homo sapiens) (UniProt Q99683).
T1 sequence (whole entry): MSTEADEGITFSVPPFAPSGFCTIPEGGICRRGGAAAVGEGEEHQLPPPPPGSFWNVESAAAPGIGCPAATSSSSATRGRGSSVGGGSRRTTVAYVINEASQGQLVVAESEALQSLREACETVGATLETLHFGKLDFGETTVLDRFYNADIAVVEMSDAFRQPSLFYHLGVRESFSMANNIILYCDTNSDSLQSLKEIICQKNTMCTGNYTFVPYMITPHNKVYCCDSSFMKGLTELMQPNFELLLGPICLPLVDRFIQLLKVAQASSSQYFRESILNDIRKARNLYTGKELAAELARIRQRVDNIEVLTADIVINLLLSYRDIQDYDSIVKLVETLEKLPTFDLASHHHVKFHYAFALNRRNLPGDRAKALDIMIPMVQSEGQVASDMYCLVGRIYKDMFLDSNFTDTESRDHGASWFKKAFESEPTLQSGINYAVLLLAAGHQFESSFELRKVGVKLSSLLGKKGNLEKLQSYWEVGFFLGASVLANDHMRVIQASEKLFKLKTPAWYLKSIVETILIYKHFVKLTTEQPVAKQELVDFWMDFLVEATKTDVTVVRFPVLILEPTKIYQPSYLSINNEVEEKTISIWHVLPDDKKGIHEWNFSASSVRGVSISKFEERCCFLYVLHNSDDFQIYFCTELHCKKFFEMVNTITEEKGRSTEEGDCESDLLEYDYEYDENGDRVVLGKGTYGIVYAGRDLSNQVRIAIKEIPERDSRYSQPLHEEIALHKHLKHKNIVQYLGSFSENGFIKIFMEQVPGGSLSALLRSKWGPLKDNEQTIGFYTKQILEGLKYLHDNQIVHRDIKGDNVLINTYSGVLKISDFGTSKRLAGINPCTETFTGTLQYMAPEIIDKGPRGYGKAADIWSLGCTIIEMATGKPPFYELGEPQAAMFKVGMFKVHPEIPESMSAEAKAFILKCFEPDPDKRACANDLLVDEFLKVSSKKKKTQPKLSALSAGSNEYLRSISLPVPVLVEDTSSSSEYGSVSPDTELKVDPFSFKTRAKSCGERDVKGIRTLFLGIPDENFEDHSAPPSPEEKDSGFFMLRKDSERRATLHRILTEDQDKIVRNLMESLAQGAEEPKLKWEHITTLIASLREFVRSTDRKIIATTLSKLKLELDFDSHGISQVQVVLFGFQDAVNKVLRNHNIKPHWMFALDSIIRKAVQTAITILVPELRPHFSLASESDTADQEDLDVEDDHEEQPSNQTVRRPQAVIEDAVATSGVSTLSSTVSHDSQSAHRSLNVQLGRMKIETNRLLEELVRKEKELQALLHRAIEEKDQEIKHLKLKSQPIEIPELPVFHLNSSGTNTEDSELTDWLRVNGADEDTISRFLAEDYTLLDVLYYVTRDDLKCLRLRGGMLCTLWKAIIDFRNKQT
The test is described as follows: Inhibition of MAP3K5 conserved Lys2 (DIKGDNVLINTYSGVLK) in human PBMC at 1 uM.

Test [6] addresses Cyclin-dependent kinase 1 (Homo sapiens) (UniProt P06493). Nature of the test: Inhibition of CDC2 labeling at conserved Lys2 (DLKPQNLLIDDKGTIK) in human PBMC at 0.1 uM.
Test [7] concerns the target T2, Interleukin-1 receptor-associated kinase 4 (Homo sapiens) (UniProt Q9NWZ3).
T2 sequence (whole entry): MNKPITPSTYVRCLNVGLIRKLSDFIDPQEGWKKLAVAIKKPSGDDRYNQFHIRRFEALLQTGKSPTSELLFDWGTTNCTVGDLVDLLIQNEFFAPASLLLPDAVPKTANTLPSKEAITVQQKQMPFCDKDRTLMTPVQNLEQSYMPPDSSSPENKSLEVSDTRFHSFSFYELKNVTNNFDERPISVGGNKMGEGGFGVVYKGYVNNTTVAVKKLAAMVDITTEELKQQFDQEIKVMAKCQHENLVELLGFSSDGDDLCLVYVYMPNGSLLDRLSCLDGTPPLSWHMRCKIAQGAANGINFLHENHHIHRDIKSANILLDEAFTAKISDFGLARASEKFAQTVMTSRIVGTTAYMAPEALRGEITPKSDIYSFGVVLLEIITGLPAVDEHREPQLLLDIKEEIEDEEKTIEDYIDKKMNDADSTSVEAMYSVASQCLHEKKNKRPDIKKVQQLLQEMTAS
The test is described as follows: Inhibition of IRAK4 conserved Lys1 (GYVNNTTVAVKK) in human PBMC at 1 uM.

The target in test [8] is Mitogen-activated protein kinase kinase kinase 20 (Homo sapiens) (UniProt Q9NYL2). The test is described as follows: Inhibition of ZAK conserved Lys1 (WISQDKEVAVKK) in human PBMC at 0.1 uM.
Mitogen-activated protein kinase kinase kinase 20 (Homo sapiens), sequence (Q9NYL2 2-800 limits assumed): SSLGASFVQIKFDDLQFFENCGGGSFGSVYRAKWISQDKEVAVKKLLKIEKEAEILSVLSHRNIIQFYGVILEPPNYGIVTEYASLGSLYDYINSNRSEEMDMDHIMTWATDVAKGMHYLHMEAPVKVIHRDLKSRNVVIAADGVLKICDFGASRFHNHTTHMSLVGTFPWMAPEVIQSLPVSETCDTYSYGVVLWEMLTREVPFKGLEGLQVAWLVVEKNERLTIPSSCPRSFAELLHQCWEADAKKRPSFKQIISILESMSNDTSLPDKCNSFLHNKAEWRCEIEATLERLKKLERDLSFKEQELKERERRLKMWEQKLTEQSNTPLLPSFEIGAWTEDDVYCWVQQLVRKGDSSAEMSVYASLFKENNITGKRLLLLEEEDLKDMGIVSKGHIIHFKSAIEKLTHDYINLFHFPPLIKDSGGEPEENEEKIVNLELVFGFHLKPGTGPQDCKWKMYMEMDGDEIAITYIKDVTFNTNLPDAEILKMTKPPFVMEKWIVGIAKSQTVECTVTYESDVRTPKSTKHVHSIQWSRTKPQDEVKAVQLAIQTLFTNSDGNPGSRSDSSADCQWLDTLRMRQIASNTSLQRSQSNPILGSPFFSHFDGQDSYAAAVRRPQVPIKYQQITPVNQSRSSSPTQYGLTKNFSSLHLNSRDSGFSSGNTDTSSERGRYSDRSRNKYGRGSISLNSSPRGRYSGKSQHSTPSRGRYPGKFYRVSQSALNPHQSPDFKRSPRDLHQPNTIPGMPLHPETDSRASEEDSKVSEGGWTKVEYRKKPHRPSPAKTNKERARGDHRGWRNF
The target of test [9] is Mitogen-activated protein kinase 3 (Homo sapiens) (UniProt P27361). The test is described as follows: Inhibition of Erk1 ATP binding site (DLKPSNLLINTTCDLK) in human PBMC at 0.1 uM.
Mitogen-activated protein kinase 3 (Homo sapiens), sequence (P27361 whole entry): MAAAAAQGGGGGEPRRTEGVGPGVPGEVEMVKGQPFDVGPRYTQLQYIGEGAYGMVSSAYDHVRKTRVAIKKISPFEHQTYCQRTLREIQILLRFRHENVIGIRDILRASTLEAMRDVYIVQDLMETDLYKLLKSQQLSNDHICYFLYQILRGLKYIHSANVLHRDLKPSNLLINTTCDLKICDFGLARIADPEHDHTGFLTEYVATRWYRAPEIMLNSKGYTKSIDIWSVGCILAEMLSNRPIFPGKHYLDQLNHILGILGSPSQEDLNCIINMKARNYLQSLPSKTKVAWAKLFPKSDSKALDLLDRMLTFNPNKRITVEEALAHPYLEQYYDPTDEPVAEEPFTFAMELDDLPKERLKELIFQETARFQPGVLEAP
In test [10] the target is Serine/threonine-protein kinase SMG1 (Homo sapiens) (UniProt Q96Q15). The test is described as follows: Inhibition of SMG1 ATP binding site (SYPYLFKGLEDLHLDER) in human PBMC at 0.1 uM.

Cyclin-dependent kinase 1 (Homo sapiens), sequence (P06493 whole entry, looked up): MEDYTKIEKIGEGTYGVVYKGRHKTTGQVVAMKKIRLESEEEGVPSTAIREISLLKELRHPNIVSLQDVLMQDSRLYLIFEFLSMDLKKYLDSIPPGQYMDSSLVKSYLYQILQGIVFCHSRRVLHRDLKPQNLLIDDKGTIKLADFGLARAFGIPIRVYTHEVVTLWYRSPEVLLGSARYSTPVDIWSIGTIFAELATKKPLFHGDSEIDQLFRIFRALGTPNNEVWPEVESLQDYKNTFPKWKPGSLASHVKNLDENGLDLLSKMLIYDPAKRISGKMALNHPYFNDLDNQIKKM
Serine/threonine-protein kinase Nek7 (Homo sapiens), sequence (Q8TDX7 whole entry, looked up): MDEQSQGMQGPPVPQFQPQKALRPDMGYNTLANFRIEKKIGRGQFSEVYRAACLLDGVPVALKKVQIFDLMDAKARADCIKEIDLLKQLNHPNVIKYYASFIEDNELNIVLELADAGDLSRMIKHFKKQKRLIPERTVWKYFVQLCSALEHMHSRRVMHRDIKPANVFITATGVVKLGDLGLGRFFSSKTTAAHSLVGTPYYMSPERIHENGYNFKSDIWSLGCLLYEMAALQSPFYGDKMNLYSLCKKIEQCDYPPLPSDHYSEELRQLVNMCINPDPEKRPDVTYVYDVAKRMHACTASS
Ribosomal protein S6 kinase alpha-1 (Homo sapiens), sequence (Q15418 whole entry): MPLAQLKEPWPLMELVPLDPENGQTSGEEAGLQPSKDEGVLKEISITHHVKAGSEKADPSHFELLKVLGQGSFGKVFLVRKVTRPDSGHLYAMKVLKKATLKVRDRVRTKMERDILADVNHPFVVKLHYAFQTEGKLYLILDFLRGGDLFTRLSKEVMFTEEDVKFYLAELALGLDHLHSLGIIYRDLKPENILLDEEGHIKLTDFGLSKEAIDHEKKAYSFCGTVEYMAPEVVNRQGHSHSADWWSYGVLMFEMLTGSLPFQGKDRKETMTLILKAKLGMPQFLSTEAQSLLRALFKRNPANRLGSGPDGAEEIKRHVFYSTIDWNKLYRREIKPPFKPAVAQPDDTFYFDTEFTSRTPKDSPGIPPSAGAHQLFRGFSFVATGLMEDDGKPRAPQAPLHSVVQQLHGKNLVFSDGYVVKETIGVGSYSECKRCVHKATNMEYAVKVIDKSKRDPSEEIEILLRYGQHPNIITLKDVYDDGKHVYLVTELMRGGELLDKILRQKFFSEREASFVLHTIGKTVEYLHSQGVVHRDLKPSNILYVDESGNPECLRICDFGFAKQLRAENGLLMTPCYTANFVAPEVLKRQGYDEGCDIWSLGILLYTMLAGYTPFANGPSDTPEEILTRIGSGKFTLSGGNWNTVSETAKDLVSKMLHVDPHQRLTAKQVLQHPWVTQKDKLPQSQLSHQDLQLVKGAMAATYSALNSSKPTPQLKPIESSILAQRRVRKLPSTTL

In general, inhibition refers to the drop in the measured response relative to a control, in per cent. `CC(C)n1cc(-c2cc(-c3ccc(CN4CCOCC4)cc3)cnc2N)nn1`: the inhibition was 10.2% in test [1]; 13.8% in test [2]; -4.8% in test [3]; -7.8% in test [4]; 25.3% in test [5]; 14.4% in test [6]. Further, the inhibition in [7] was 5%; in [8], 11.3%; in [9] it was -6.4%; in [10] it was 12.7%.

For the origin of these results see ChEMBL document CHEMBL4043168, “The design and SAR of a novel series of 2-aminopyridine based LRRK2 inhibitors” (Bioorg Med Chem Lett, 2017).
